Read-outs that look alike come from different tables or passages of the source.

Format in all cases: in vivo
Test [1] relates to Green Peach Aphid (Myzus persicae, MYZUPE). Nature of the test: Bioassay 1: Green Peach Aphid, cabbage seedling foliar spray. The settings on record: 3 days after treatment. As for the experimental part: The stock solutions were prepared with Formula One as well as for each of the active ingredients individually. Test solutions were prepared from the stock solutions. Test solutions were prepared containing Formula One, the individual active ingredients, and mixtures of Formula One with each of the active ingredients. The test solutions for Formula One and the individual active ingredients were prepared by adding 750 microliters (μL) of stock solution to a 25 mL glass vial, then adding 750 μL of 1:1 acetone:methanol solvent, followed by the addition of 13.5 mL water with 0.025% Tween® 20 to create a 0.0005% (weight/volume (w/v)) solution. The test solutions containing mixtures of Formula One and the individual active ingredients were prepared by adding 750 μL of the active ingredient stock solution to a 25 mL glass vial, followed by 750 μL of the Formula One stock solution, then by the addition of 13.5 mL water with 0.025% Tween® 20 to create a test solution containing 0.0005% (w/v) Formula One and 0.0005% (w/v) of the active ingredient. Each test solution was serially diluted to create desired doses of test solutions (0.0005% (w/v), 0.000125% (w/v), 0.00003125% (w/v), 0.0000078% (w/v), 0.00000195% (w/v), and 0.0000005% (w/v)).
The test solutions were tested against GPA using the following procedure: Cabbage seedlings, grown in 3 inch pots with 2-3 small (3-5 centimeter (cm)) true leaves, were used as test substrate. The seedlings were infested with 20-50 GPA (wingless adult and nymph stages) one day prior to chemical application. Four pots with individual seedlings were used for each treatment. A hand-held aspirator-type sprayer was used for spraying a solution to both sides of […] leaves until runoff. Reference plants (solvent check) were sprayed with the diluent only (0.025% Tween® 20 and 10% acetone:methanol (1:1) in water). Treated plants were held in a holding room for three days at approximately 25° C. and ambient relative humidity (RH about 20% to about 45%) prior to grading. Evaluation was conducted by counting the number of live aphids per plant under a microscope three days after treatment. Percent control was measured using Abbott's correction formula (W. S. Abbott, J. Econ. Entomol. 18 (1925), pp. 265-267) as follows:
(§1) Corrected % Control=(1−(Y/X))*100
where X=No. of live aphids on solvent check plants and Y=No. of live aphids on treated plants. In Table B1 the “Expected % Control” was calculated using the method described in Colby S. R., Weeds, 1967, 15, 20-22. Bioassay 2: Sweet Potato Whitefly (Bemisia tabaci, BEMITA) (“SPW”).

Test [2] has as its system Neotropical Brown Stink Bug (Euschistus heros, EUSCHE). Nature of the test: Bioassay 5: Neotropical Brown Stink Bug, soaked green bean segments. Particulars: 72 h; for pest or weed control at 0.000156 % / pest or weed control at 0.0025 %: read-out: Average % Control AI; for pest or weed control at 0.000625 %: AI alone 0.000625 % (w/v). As for the experimental part: Stock solutions were prepared with Formula One as well as for each of the active ingredients individually. Test solutions were prepared from the stock solutions. Test solutions were prepared containing Formula One, the individual active ingredients, and mixtures of Formula One with each of the active ingredients. The test solution for Formula One was prepared by adding 500 μL of the stock solution to a 25 mL glass vial, then adding 500 μL of acetone, followed by the addition of 9 mL water with 0.025% Tween® 20 to create a 0.04% (w/v) solution. The individual active ingredients were prepared by adding 500 μL of stock solution to a 25 mL glass vial, then adding 500 μL of acetone, followed by the addition of 9 mL water with 0.025% Tween® 20 to create a 0.005% (w/v) solution. The test solutions containing mixtures of Formula One and the individual active ingredients were prepared by adding 500 μL of the active ingredient stock solution to a 25 mL glass vial, followed by 500 μL of the Formula One stock solution, then by the addition of 9 mL water with 0.025% Tween® 20 to create a test solution containing 0.04% (w/v) Formula One and 0.005% (w/v) of the active ingredient. Each test solution was serially diluted to create desired doses of test solutions (0.01% (w/v), 0.0025% (w/v), 0.000625% (w/v), 0.000156% (w/v), and 0.000039% (w/v)). In test solutions containing mixtures of Formula One and the active ingredients, the active ingredients were diluted as described above, but the Concentration of Formula One was held constant (0.04% (w/v)).
The test solutions that were tested against BSB were similar to those described above for WTPB. Fresh green beans were cut into segments approximately 1.5 inches long. Four bean segments were added to each test solution and soaked for approximately 15 minutes. After soaking, a single bean fragment was removed and placed into a single well of a 32-well rearing tray (Frontier Agricultural Sciences™), on top of a round filter paper disc. A reference treatment (solvent check) was treated with the diluent only. Each treatment was replicated four times and the test treatments were held at approximately 26° C. and ambient relative humidity (RH) prior to grading. Bean segments were allowed to air dry for ˜30 minutes. Three BSB nymphs were added to and contained in each well with a clear perforated adhesive lid. The total number of living BSB nymphs was recorded 3 days after application. Scoring was based off the total number of living nymphs out of all four replicates. Percent control was measured using Abbott's correction formula (W. S. Abbott, J. Econ. Entomol. 18 (1925), pp. 265-267) as follows:
as §1
where X=No. of live nymphs on solvent check and Y=No. of live nymphs on treated bean segments. In Table B5 the “Expected % Control” was calculated using the method described in Colby S. R., Weeds, 1967, 15, 20-22. Bioassay 6: Beet Armyworm (Spodoptera exigua, LAPHEG) (BAW), and Diamondback Moth (Plutella xylostella, PLUTMA) (DBM).

Test [3] deals with Western Flower Thrips (Frankliniella occidentalis, FRANOC). Briefly: Bioassay 3: Western Flower Thrips, cotton leaf disc dip. The settings on record: foliar, 72 h; for pest or weed control at 0.0003125 %: AI alone 0.0003125 % (w/v); for pest or weed control at 7.8e-05 %: read-out: Average % Control AI; for pest or weed control at 0.005 %: AI alone 0.005 % (w/v). Here is the method:
Stock solutions of Formula One and various active ingredients were prepared initially at a concentration of 8 mg/mL for Formula One and 1 mg/mL for the active ingredients, respectively, using acetone as a diluent. Stock solutions were prepared with Formula One as well as for each of the active ingredients individually. Test solutions were prepared from the stock solutions. Test solutions were prepared containing Formula One, the individual active ingredients, and mixtures of Formula One with each of the active ingredients. The test solution for Formula One was prepared by adding 500 μL of the stock solution to a 25 mL glass vial, then adding 500 μL of acetone, followed by the addition of 9 mL water with 0.025% Tween® 20 to create a 0.04% (w/v) solution. The test solutions of the individual active ingredients were prepared by adding 500 μL of stock solution to a 25 mL glass vial, then adding 500 μL of acetone, followed by the addition of 9 mL water with 0.025% Tween® 20 to create a 0.005% (w/v) solution. The test solutions containing mixtures of Formula One and the individual active ingredients were prepared by adding 500 μL of the active ingredient stock solution to a 25 mL glass vial, followed by 500 μL of the Formula One stock solution, then by the addition of 9 mL water with 0.025% Tween® 20 to create a test solution containing 0.04% (w/v) Formula One and 0.005% (w/v) of the active ingredient. Each test solution was serially diluted to create desired doses of test solutions (0.005% (w/v), 0.00125% (w/v), 0.0003125% (w/v), 0.000078% (w/v), and 0.0000195% (w/v)). In test solutions containing mixtures of Formula One and the active ingredients, the active ingredients were diluted as described above, but the Concentration of Formula One was held constant (0.04% (w/v)).
The test solutions were tested against WFT using the following procedure: Leaf discs (2.7 cm in diameter) were cut from the true leaves of cotton plants. Leaf discs were dipped into the test solutions and shaken to ensure complete coverage of the leaf disc and then placed in Millipore® PetriSlides containing a filter paper disc. Treated leaf discs were air dried for approximately 1 hour. Each leaf disc was infested with 5 WFT (9-10 day old nymphs) by placement on each leaf disc, and the PetriSlides were capped to prevent escape. Each treatment was replicated three times and the test treatments were held at approximately 26° C. and ambient relative humidity (RH) prior to grading. Reference discs (solvent check) were treated with the diluent only. Evaluation was conducted by counting the number of live WFT under magnification 3 days after treatment. Percent control was measured using Abbott's correction formula (W. S. Abbott, J. Econ. Entomol. 18 (1925), pp. 265-267) as follows:
as §1
where X=No. of live nymphs on solvent check leaf discs and Y=No. of live nymphs on treated leaf discs. In Table B3 the “Expected % Control” was calculated using the method described in Colby S. R., Weeds, 1967, 15, 20-22. Bioassay 4: Western Tarnished Plant Bug (Lygus hesperus, LYGUHE) (“WTPB”).

Where [4] appears, read: AI alone 0.000156 % (w/v), soaked bean segments, 3 days after application.
The mark [5] stands for this setting: cotton leaf disc dip, 3 days after treatment.
Setting [6] is: soaked bean segments, 3 days after application.
Setting [7] is: AI alone 0.0025 % (w/v), soaked bean segments, 3 days after application.
The mark [8] stands for this setting: AI alone 0.000078 % (w/v), cotton leaf disc dip, 3 days after treatment.

With `Cc1c(COC(=O)[C@@H]2[C@H](/C=C(\Cl)C(F)(F)F)C2(C)C)cccc1-c1ccccc1` (racemic) [Bifenthrin], the “Average % Control A1” value in test [1] (AI alone 0.78x10^-5 % (w/v)) amounted to 52%. In addition, in test [2] (setting [4]), the pest or weed control at 0.000156 % is 30%.

With `CC1(C)[C@H](C(=O)O[C@H](C#N)c2cccc(Oc3ccccc3)c2)[C@@H]1/C=C(\Cl)C(F)(F)F` (racemic) [Lambda Cyhalothrin], the “Average % Control A1” value in test [1] (AI alone 0.78x10^-5 % (w/v)) is listed as 40%. Further, in test [3] (setting [5]), the pest or weed control at 0.0003125 % turned out to be 7%. The pest or weed control at 0.000625 % in test [2] (setting [6]) was determined as 8%.

For the molecule `COP(=O)(NC(C)=O)SC` (stereo not shown) [Acephate], the pest or weed control at 7.8e-05 % in test [3] stood at 5%. Besides, in test [2], the pest or weed control at 0.0025 % was found to be 0%.

For the molecule `C/C(=N\C#N)N(C)Cc1ccc(Cl)nc1` [Acetamiprid], in test [1] (AI alone 0.78x10^-5 % (w/v)), the “Average % Control A1” value is given as 24%. In addition, the pest or weed control at 0.0003125 % in test [3] (setting [5]) came to 13%.

In turn, `CNC(=O)c1cc(Cl)cc(C)c1NC(=O)c1cc(Br)nn1-c1ncccc1Cl` [Chlorantraniliprole] returned a pest or weed control at 0.005 % in test [3] (setting [5]) of 7%.

In turn, `CCOCn1c(-c2ccc(Cl)cc2)c(C#N)c(Br)c1C(F)(F)F` [Chlorfenapyr] yielded a pest or weed control at 0.005 % in test [3] (setting [5]) of 57%. The pest or weed control at 0.0025 % in test [2] (setting [7]) stood at 8%.

As for `CN/C(=N/CC1CCOC1)N[N+](=O)[O-]` (stereo not shown) [Dinotefuran], the pest or weed control at 0.000156 % in test [2] came out at 17%.

On to `CC[S+]([O-])c1c(C#N)nn(-c2c(Cl)cc(C(F)(F)F)cc2Cl)c1N` (stereo not shown) [Ethiprole], for which, in test [1] (AI alone 3.125x10^-5 % (w/v)), the “Average % Control A1” value stood at 0%. In addition, the pest or weed control at 0.005 % in test [3] (setting [5]) stood at 0%. In test [2] (AI alone 0.0000391 % (w/v), soaked bean segments, 3 days after application), this molecule yielded a pest or weed control at 3.91e-05 % of 0%.

As to `CON=CNC(=O)c1ccc(C2=NOC(c3cc(Cl)cc(Cl)c3)(C(F)(F)F)C2)cc1C` (stereo not shown) [Fluxametamide], in test [1] (AI alone 12.5x10^-5 % (w/v)), the “Average % Control A1” value turned out to be 0%.

In test [3] (setting [5]), `O=[N+]([O-])NC1=NCCN1Cc1ccc(Cl)nc1` [Imidacloprid] gave a pest or weed control at 0.0003125 % of 0%. The molecule also had a pest or weed control at 0.000625 % in test [2] (setting [6]) of 17%.

For `COc1cccc(C(=O)NN(C(=O)c2cc(C)cc(C)c2)C(C)(C)C)c1C` [Methoxyfenozide], the “Average % Control A1” value in test [1] (AI alone 0.195x10^-5 % (w/v)) turned out to be 5%.

`CNC(=O)O/N=C(\SC)C(=O)N(C)C` [Oxamyl] yielded a pest or weed control at 0.0003125 % in test [3] (setting [5]) of 0%.

`CC(COc1ccc(Oc2ccccc2)cc1)Oc1ccccn1` (stereo not shown) [Pyriproxyfen] returned a pest or weed control at 0.00125 % in test [3] (AI alone 0.00125 % (w/v), cotton leaf disc dip, 3 days after treatment) of 17%.

`CCOC(=O)OC1=C(c2cc(C)ccc2C)C(=O)N[C@]12CC[C@@H](OC)CC2` [Spirotetramat]: the “Average % Control A1” value in test [1] (AI alone 0.05x10^-5 % (w/v)) is listed as 15%. Moreover, in test [3] (setting [8]), the pest or weed control at 7.8e-05 % is 7%.

In the case of `CC(c1ccc(C(F)(F)F)nc1)S(C)(=O)=NC#N` (stereo not shown) [Sulfoxaflor], the pest or weed control at 0.0025 % in test [2] (setting [7]) came to 58%.

Regarding `CN1COCN(Cc2cnc(Cl)s2)/C1=N\[N+](=O)[O-]` [Thiamethoxam], in test [3] (setting [8]), the pest or weed control at 7.8e-05 % came out at 7%. In test [2] (setting [4]), the pest or weed control at 0.000156 % came to 17%.

For the molecule Emamectin Benzoate, the “Average % Control A1” value in test [1] (AI alone 3.125x10^-5 % (w/v)) came out at 21%.

Source of the values: patent publication US20230189807A1, “COMPOSITIONS HAVING PESTICIDAL UTILITY AND PROCESSES RELATED THERETO” (priority 2020, published 2023).
